Assay results published in patent publication US10265299B2, “Composition for promoting hair growth and/or hair restoration containing psoralidin” (Amorepacific Corporation, priority 2015, dated 2019).

Key:
[1] = system: hair follicle; assay: Culture of hair follicle organ and observation of hair follicle cycle; format: cell-based; settings: psoralidin 1, 10 μM vs samples without psoralidin treatment; human hair follicle organ culture
Method: For the experiment, a hair transplant was performed to a person with a symptom of partial hair loss. Hair follicle samples of 4 groups each having 15 hair follicles were prepared with remaining follicle samples. William's E medium (Gibco, NY, USA) ) including 500 μl culture medium (2 mM L-glutamine (PAA, Coelbe, Germany), 10 μg/ml insulin, 10 ng/ml hydrocortisone (Sigma, St Louis, Mo.), 0.1% Fungizone (Gibco, NY, USA), 10 μg/ml streptomycin, and 100 U/ml penicillin (Gibco, NY, USA) was dispensed into a 24 well plate (Nunc, Wiesbaden, Germany). Then, the cells were cultured at a density of 5 to 6 cells per well on 500 ul of William's E medium (Gibco, NY, USA).
The cultured cell samples were treated with psoralidin at varying concentrations (0, 1, 10 μM). A sample not treated with psoralidin was used as a control and the medium was changed every 2 to 3 days. After the treatment with psoralidin, the hair follicle was photographed using a stereomicroscope (Dongwon CNS, Korea), and the life cycle of Image hair follicle was classified and schematized.

[2] = system: androgen-independent prostate cancer cells; settings: in vitro and in vivo; cited from earlier work
[3] = system: protein kinase Akt; settings: cited from earlier work
[4] = system: NIH3T3 (WNT) cells; assay: Measurement of hair follicle stem cell activity (WNT/β-catenin luciferase assay); format: cell-based; settings: psoralidin 0, 0.01, 0.1, 1, 10 μM for 24 hours; ONE-Glo reagent
Method: NIH3T3 (WNT) cells, which are hair follicle stem cells, were seeded in a 96 well plates (Nunc, Wiesbaden, Germany) at a density of 10000 cells/well and cultured for 24 hours (5% CO2, 37° C.). Then, psoralidin was treated at varying concentrations (0, 0.01, 0.1, 1, 10 μM) for 24 hours. 100 μl of ONE-Glo reagent (Promega, Madison, Wis., USA) was added to each well of the 96-well plate and reacted for 3 minutes . After the reaction, the activity of stem eel Is was measured with a luminometer Victor (PerkinElmer, Waltham, Mass., USA).

[5] = system: CRH (Corticotropin-releasing hormone) and corticosterone; settings: fed to animals; cited from earlier work

Compound: CC(C)=CCc1cc2c(cc1O)oc(=O)c1c3ccc(O)cc3oc21 [psoralidin]
- speed of the progression to the catagen stage [1]: significantly delayed
- time remaining in the anagen stage of the hair follicle cycle [1]: remained longer in the anagen stage
- growth of androgen-independent prostate cancer cells [2]: inhibiting the growth of androgen-independent prostate cancer cells both in vitro and in vivo
- phosphorylation of protein kinase Akt [3]: inhibits the phosphorylation of protein kinase Akt
- activity of hair follicle stem cells (luminescence, WNT/β-catenin luciferase) [4]: activated
- levels of stress hormones CRH and corticosterone [5]: lower the levels of hormones of CRH (Corticotropin-releasing hormone) and corticosterone
